Source: PubChem BioAssay (NCI)
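96-well plates; 48 h exposure; 5 concentrations. Endpoints by linear interpolation between flanking doses. Not reached: highest tested concentration assigned. The concentration for full growth arrest is given as TGI.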

Legend:
Experiment in all cases: inhibition of tumour cell growth, NCI panel, 48 h
SK-MEL-28 melanoma = system: SK-MEL-28 melanoma
CCRF-CEM leukemia = system: CCRF-CEM leukemia
SNB-19 CNS = system: SNB-19 CNS
NCI-H23 lung = system: NCI-H23 lung
K-562 leukemia = system: K-562 leukemia
SK-MEL-5 melanoma = system: SK-MEL-5 melanoma
NCI-H522 lung = system: NCI-H522 lung
HT29 colon = system: HT29 colon
SF-268 CNS = system: SF-268 CNS
KM20L2 colon = system: KM20L2 colon
DMS 273 small cell lung = system: DMS 273 small cell lung
SF-539 CNS = system: SF-539 CNS
SF-295 CNS = system: SF-295 CNS
CAKI-1 renal = system: CAKI-1 renal
SNB-78 CNS = system: SNB-78 CNS
HCC-2998 colon = system: HCC-2998 colon
EKVX NSCLC = system: EKVX NSCLC
TK-10 renal = system: TK-10 renal
OVCAR-8 ovarian = system: OVCAR-8 ovarian
OVCAR-5 ovarian = system: OVCAR-5 ovarian
MALME-3M melanoma = system: MALME-3M melanoma
RXF 393 renal = system: RXF 393 renal
OVCAR-3 ovarian = system: OVCAR-3 ovarian
SW-620 colon = system: SW-620 colon
SN12C renal = system: SN12C renal
UO-31 renal = system: UO-31 renal
HOP-92 NSCLC = system: HOP-92 NSCLC
A549 NSCLC = system: A549 NSCLC
ACHN renal = system: ACHN renal
MOLT-4 leukemia = system: MOLT-4 leukemia
KM12 colon = system: KM12 colon
SK-OV-3 ovarian = system: SK-OV-3 ovarian
SR leukemia = system: SR leukemia
DLD-1 colon = system: DLD-1 colon
786-0 renal = system: 786-0 renal
M19-MEL melanoma = system: M19-MEL melanoma
HCT-15 colon = system: HCT-15 colon
OVCAR-4 ovarian = system: OVCAR-4 ovarian
RXF-631 renal = system: RXF-631 renal
SK-MEL-2 melanoma = system: SK-MEL-2 melanoma
M14 melanoma = system: M14 melanoma
IGROV1 ovarian = system: IGROV1 ovarian
COLO 205 colon = system: COLO 205 colon
LXFL 529 NSCLC = system: LXFL 529 NSCLC
U251 CNS = system: U251 CNS
XF 498 CNS = system: XF 498 CNS
HOP-18 NSCLC = system: HOP-18 NSCLC
HL-60(TB) leukemia = system: HL-60(TB) leukemia
RPMI-8226 leukemia = system: RPMI-8226 leukemia
HCT-116 colon = system: HCT-116 colon
NCI-H226 lung = system: NCI-H226 lung
UACC-257 melanoma = system: UACC-257 melanoma
UACC-62 melanoma = system: UACC-62 melanoma
LOX IMVI melanoma = system: LOX IMVI melanoma
NCI-H460 lung = system: NCI-H460 lung
HOP-62 NSCLC = system: HOP-62 NSCLC

## Nc1ccc(C(=O)N/C(=C\C=C\c2ccco2)c2nc3[nH]c(=S)[nH]c(=O)c3[nH]2)cc1
SK-MEL-28 melanoma
  TGI: > 100 µM
CCRF-CEM leukemia
  TGI: > 100 µM
SNB-19 CNS
  TGI: > 100 µM
NCI-H23 lung
  TGI: > 100 µM
K-562 leukemia
  TGI: > 100 µM
SK-MEL-5 melanoma
  TGI: > 100 µM
NCI-H522 lung
  TGI: > 100 µM
HT29 colon
  TGI: > 100 µM
SF-268 CNS
  TGI: > 100 µM
KM20L2 colon
  TGI: > 100 µM
DMS 273 small cell lung
  TGI: > 100 µM
SF-539 CNS
  TGI: > 100 µM
SF-295 CNS
  TGI: > 100 µM
CAKI-1 renal
  TGI: > 100 µM
SNB-78 CNS
  TGI: > 100 µM
HCC-2998 colon
  TGI: > 100 µM
EKVX NSCLC
  TGI: > 100 µM
TK-10 renal
  TGI: > 100 µM
OVCAR-8 ovarian
  TGI: > 100 µM
OVCAR-5 ovarian
  TGI: > 100 µM
MALME-3M melanoma
  TGI: > 100 µM
RXF 393 renal
  TGI: > 100 µM
OVCAR-3 ovarian
  TGI: > 100 µM
SW-620 colon
  TGI: > 100 µM
SN12C renal
  TGI: > 100 µM
UO-31 renal
  TGI: > 100 µM
HOP-92 NSCLC
  TGI: > 100 µM
A549 NSCLC
  TGI: > 100 µM
ACHN renal
  TGI: > 100 µM
MOLT-4 leukemia
  TGI: > 100 µM
KM12 colon
  TGI: > 100 µM
SK-OV-3 ovarian
  TGI: > 100 µM
SR leukemia
  TGI: > 100 µM
DLD-1 colon
  TGI: > 100 µM
786-0 renal
  TGI: > 100 µM
M19-MEL melanoma
  TGI: > 100 µM
HCT-15 colon
  TGI: > 100 µM
OVCAR-4 ovarian
  TGI: > 100 µM
RXF-631 renal
  TGI: > 100 µM
SK-MEL-2 melanoma
  TGI: > 100 µM
M14 melanoma
  TGI: > 100 µM
IGROV1 ovarian
  TGI: > 100 µM
COLO 205 colon
  TGI: > 100 µM
LXFL 529 NSCLC
  TGI: > 100 µM
U251 CNS
  TGI: > 100 µM
XF 498 CNS
  TGI: > 100 µM

## Cc1nc2ccc(C(F)(F)F)cc2nc1Nc1ccc(Cl)c(Cl)c1
HOP-18 NSCLC
  TGI: 29.5 µM
SK-MEL-28 melanoma
  TGI: 24.7 µM
CCRF-CEM leukemia
  TGI: 26.7 µM
SNB-19 CNS
  TGI: 27.1 µM
NCI-H23 lung
  TGI: 26.4 µM
HL-60(TB) leukemia
  TGI: 24 µM
RPMI-8226 leukemia
  TGI: 88.1 µM
HT29 colon
  TGI: 18.6 µM
SF-268 CNS
  TGI: 37.5 µM
KM20L2 colon
  TGI: 13.2 µM
HCT-116 colon
  TGI: 22.2 µM
DMS 273 small cell lung
  TGI: 16.1 µM
SF-539 CNS
  TGI: 27.5 µM
SF-295 CNS
  TGI: 11.8 µM
NCI-H226 lung
  TGI: 39.1 µM
SNB-78 CNS
  TGI: 34.4 µM
HCC-2998 colon
  TGI: 13.7 µM
UACC-257 melanoma
  TGI: 25.4 µM
TK-10 renal
  TGI: 31.7 µM
OVCAR-8 ovarian
  TGI: 25.4 µM
UACC-62 melanoma
  TGI: 29.1 µM
OVCAR-5 ovarian
  TGI: 28.7 µM
MALME-3M melanoma
  TGI: 35.7 µM
LOX IMVI melanoma
  TGI: 13.5 µM
RXF 393 renal
  TGI: 19.1 µM
OVCAR-3 ovarian
  TGI: 26.9 µM
SW-620 colon
  TGI: 28.3 µM
SN12C renal
  TGI: 24.3 µM
UO-31 renal
  TGI: 24.6 µM
HOP-92 NSCLC
  TGI: 12.1 µM
A549 NSCLC
  TGI: 21.6 µM
ACHN renal
  TGI: 23.4 µM
MOLT-4 leukemia
  TGI: 48.2 µM
SK-OV-3 ovarian
  TGI: 36 µM
SR leukemia
  TGI: 51.9 µM
786-0 renal
  TGI: 16.1 µM
M19-MEL melanoma
  TGI: 24.4 µM
HCT-15 colon
  TGI: 18.5 µM
NCI-H460 lung
  TGI: 10.5 µM
HOP-62 NSCLC
  TGI: 30.5 µM
RXF-631 renal
  TGI: 20.1 µM
SK-MEL-2 melanoma
  TGI: 30.2 µM
COLO 205 colon
  TGI: 11.9 µM
LXFL 529 NSCLC
  TGI: 20.6 µM
U251 CNS
  TGI: 19.4 µM
XF 498 CNS
  TGI: 22.2 µM
